Laboratory results published in patent US20210386877A1, “RADIOTHERAPEUTIC COMBINATION THERAPY FOR THE TREATMENT OF CANCER” (Andarix Pharmaceuticals, Inc., priority 2019, published 2021).
*1 amine or outer side, *2 acyl side, *3 side chain or, on linkers, in order; H or OH if unused. Where a SMILES comes first, the peptide text is derived from it. Bridges are numbered along the chain shown (N, C = ends). Roman numbers before positions name the chains, in order. [ ]: non-standard residue; d: D form. ξ: configuration not given here. Phe(4-NH2) = Nc1ccc(C[C@H](N)C(=O)O)cc1; NMehCys = CN[C@@H](CCS)C(=O)O; Thr(3ξ) = CC(O)[C@H](N)C(=O)O; Dap = NC[C@H](N)C(=O)O; X1 = O=C(C[*:1])[*:2]

Legend:
SSTR = details: P2045 radiolabeled with radioactive isotopes of rhenium; versus Depreotide; cited from earlier work
[1] = P2045 radiolabeled with radioactive isotopes of rhenium; versus Depreotide; cited from earlier work
[2] = intravenously, 1.5 mg/m^2, daily×5, every 21 days; cited from earlier work
SSTR2 = SSTR2 expression in small cell cell lines after 24 hours of incubation (FIG. 2, FIG. 3); assay type: cell-based; details: H69, H187 and H417 cell lines, 3 and 5 mM valproic acid, versus beta-actin (control)
Procedure: FIG. 3 graphically quantifies the expression of SSTR2 in small cell cell lines after 24 hours of incubation with 3 and 5 mM valproic acid versus the demethylating agent, Decitabine.
FIG. 3 graphically quantifies the expression of SSTR2 […].

[3] = cited from earlier work

For `CC(O)[C@H](NC(=O)[C@H](CS)NC(=O)[C@H](Cc1ccc(N)cc1)NC(=O)[C@@H](N)CNC(=O)CSCC[C@H]1C(=O)N[C@@H](Cc2ccc(O)cc2)C(=O)N[C@H](Cc2c[nH]c3ccccc23)C(=O)N[C@@H](CCCCN)C(=O)N[C@@H](C(C)O)C(=O)N[C@@H](Cc2ccccc2)C(=O)N1C)C(=O)N[C@@H](CO)C(=O)O` (stereo partly drawn) [P2045, cyclo-[Tyr-(D-Trp)-Lys-Thr-Phe-(N-Me)Hcy]CH2CO-β-Dap-Phe(4-NH2)-Cys-Thr-Ser-OH)]] (I: cyclo(F[NMehCys]Y[dW]K[Thr(3ξ)]) / II: H-[Dap][Phe(4-NH2)]C[Thr(3ξ)]S-OH; linker I:2-II:1 via X1), the SSTR affinity (SSTR) is listed as “retains the SSTR affinity of Depreotide” and the “kidney and whole body retention” value [1] is listed as “lower kidney and whole body retention”.
In the case of `CC[C@@]1(O)C(=O)OCc2c1cc1n(c2=O)Cc2cc3c(CN(C)C)c(O)ccc3nc2-1` [topotecan], the most common toxicities [2] is listed as “hematologic (grade 4 neutropenia, thrombocytopenia and grade 3/4 anemia)”.
In the case of `CCCC(CCC)C(=O)O` [valproic acid], the SSTR2 expression (SSTR2) is given as “upregulation of SSTR2” and the “solubility in organic solvents” value [3] is given as “very soluble”.
